This is an account of results in patent US10722514B2 (FLX Bio, Inc., priority 2017, dated 2020).

Structures can show the parent of a compound that is named as a salt.

In this experiment the target is T1, recombinant full-length USP7 (Homo sapiens, UniProt Q93009).
T1 construct: A 25 μl reaction volume containing recombinant full-length USP7 (62 pM)
As to the kind of experiment: USP7-mediated ubiquitin-rhodamine cleavage assay. The conditions noted are these: recombinant full-length USP7 62 pM; ubiquitin-rhodamine 100 nM; 30-minute incubation with compound, 1 hour reaction at room temperature; read-out: Potency: USP7 IC50. In kind it is biochemical. Put shortly: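 Rhodamine fluorescence read-out after acetic acid stop; IC50 by 4-parameter nonlinear regression. Enzyme at 62 pM, substrate ubiquitin-rhodamine 100 nM final, 1 h at room temperature in the dark, after 30 min compound preincubation. Buffer: HEPES pH 7.3, NaCl, TCEP, BSA; 1% DMSO.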

T1 sequence (Q93009 whole entry): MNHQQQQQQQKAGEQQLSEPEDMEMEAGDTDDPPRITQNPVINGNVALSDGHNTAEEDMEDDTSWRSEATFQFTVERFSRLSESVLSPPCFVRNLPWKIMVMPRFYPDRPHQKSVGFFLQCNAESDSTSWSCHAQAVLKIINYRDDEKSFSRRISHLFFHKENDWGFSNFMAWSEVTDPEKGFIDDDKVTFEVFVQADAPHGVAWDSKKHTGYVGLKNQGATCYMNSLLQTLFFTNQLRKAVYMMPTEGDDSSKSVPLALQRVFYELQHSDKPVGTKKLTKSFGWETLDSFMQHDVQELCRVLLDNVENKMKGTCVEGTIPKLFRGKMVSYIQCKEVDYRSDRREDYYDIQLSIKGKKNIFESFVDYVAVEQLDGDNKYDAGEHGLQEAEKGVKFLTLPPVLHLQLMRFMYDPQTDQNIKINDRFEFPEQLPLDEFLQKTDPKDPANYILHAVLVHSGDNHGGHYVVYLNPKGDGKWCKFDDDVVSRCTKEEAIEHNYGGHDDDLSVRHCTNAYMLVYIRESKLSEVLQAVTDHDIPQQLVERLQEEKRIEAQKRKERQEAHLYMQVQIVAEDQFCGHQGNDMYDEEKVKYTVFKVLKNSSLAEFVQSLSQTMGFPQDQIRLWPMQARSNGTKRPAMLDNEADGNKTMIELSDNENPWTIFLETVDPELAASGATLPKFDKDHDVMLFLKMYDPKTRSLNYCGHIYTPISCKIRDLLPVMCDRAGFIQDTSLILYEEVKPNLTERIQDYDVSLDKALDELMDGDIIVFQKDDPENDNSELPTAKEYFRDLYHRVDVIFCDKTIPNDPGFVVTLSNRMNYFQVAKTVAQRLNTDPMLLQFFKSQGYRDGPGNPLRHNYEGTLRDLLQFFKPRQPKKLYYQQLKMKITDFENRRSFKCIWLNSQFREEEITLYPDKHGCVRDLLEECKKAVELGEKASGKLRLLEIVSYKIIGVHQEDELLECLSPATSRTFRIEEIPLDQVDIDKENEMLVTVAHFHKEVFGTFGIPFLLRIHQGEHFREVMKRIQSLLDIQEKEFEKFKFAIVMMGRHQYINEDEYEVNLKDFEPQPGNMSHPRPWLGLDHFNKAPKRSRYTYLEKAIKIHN

With `Cc1cc(Cl)cc(-c2ncnc3cc(CN4C(=O)C5C(C4=O)C5(C)C)sc23)c1OC1CC(N)C1` (centres unmarked) [Example 358, 3-[[4-[2-(3-aminocyclobutoxy)-5-chloro-3-methyl-phenyl]thieno[3,2-d]pyrimidin-6-yl]methyl]-6,6-dimethyl-3-azabicyclo[3.1.0]hexane-2,4-dione; 2,2,2-trifluoroacetic acid], the half-maximal inhibitory concentration (IC50) (usually the concentration that inhibits the measured activity by half) was less than 1000 nM.

On to `Cc1cc(Cl)cc(-c2ncnc3cc(CN4C(=O)C5C(C4=O)C5(C)C)sc23)c1O[C@H]1CCCN[C@H]1C` (stereo partly drawn) [Example 359, 3-[[4-[5-chloro-3-methyl-2-[[(2S,3S)-2-methyl-3-piperidyl]oxy]phenyl]thieno[3,2-d]pyrimidin-6-yl]methyl]-6,6-dimethyl-3-azabicyclo[3.1.0]hexane-2,4-dione], for which the IC50 was less than 1000 nM.

For `Cc1cc(Cl)cc(-c2ncnc3cc(CN4C(=O)C5C(C4=O)C5(C)C)sc23)c1O[C@H]1CCCN[C@@H]1C` (stereo partly drawn) [Example 360, 3-[[4-[5-chloro-3-methyl-2-[[(2R,3S)-2-methyl-3-piperidyl]oxy]phenyl]thieno[3,2-d]pyrimidin-6-yl]methyl]-6,6-dimethyl-3-azabicyclo[3.1.0]hexane-2,4-dione], the IC50 was less than 1000 nM.

Consider `Cc1cc(Cl)cc(-c2ncnc3cc(CN4C(=O)C5C(C4=O)C5(C)C)sc23)c1O[C@@H]1CNCC(C)(C)C1` (stereo partly drawn) [Example 361, 3-[[4-[5-chloro-2-[[(3S)-5,5-dimethyl-3-piperidyl]oxy]-3-methyl-phenyl]thieno[3,2-d]pyrimidin-6-yl]methyl]-6,6-dimethyl-3-azabicyclo[3.1.0]hexane-2,4-dione], for which the concentration for half-maximal inhibition (IC50) is less than 1000 nM.

Regarding `Cc1cc(Cl)cc(-c2ccnc3cc(CN4C(=O)C5C(C4=O)C5(C)C)sc23)c1OC1CNCC(C)(C)C1` [Example 362, 3-[[7-[5-chloro-2-[[(3S)-5,5-dimethyl-3-piperidyl]oxy]-3-methyl-phenyl]thieno[3,2-b]pyridin-2-yl]methyl-6,6-dimethyl-3-azabicyclo[3.1.0]hexane-2,4-dione], the IC50 is less than 1000 nM.

Consider `Cc1cc(Cl)cc(-c2ccnc3cc(CN4C(=O)C5C(C4=O)C5(C)C)sc23)c1O[C@H]1CCCN[C@H]1C` (stereo partly drawn) [Example 363, 3-[[7-[5-chloro-3-methyl-2-[[(2S,3S)-2-methyl-3-piperidyl]oxy]phenyl]thieno[3,2-b]pyridin-2-yl]methyl]-6,6-dimethyl-3-azabicyclo[3.1.0]hexane-2,4-dione; 2,2,2-trifluoroacetic acid], for which the IC50 is less than 1000 nM.

On to `Cc1cc(Cl)cc(-c2ccnc3cc(CN4C(=O)C5C(C4=O)C5(C)C)sc23)c1O[C@H]1CCCN[C@@H]1C` (stereo partly drawn) [Example 364, 3-[[7-[5-chloro-3-methyl-2-[[(2R,3S)-2-methyl-3-piperidyl]oxy]phenyl]thieno[3,2-b]pyridin-2-yl]methyl]-6,6-dimethyl-3-azabicyclo[3.1.0]hexane-2,4-dione; 2,2,2-trifluoroacetic acid], for which the 50% inhibitory concentration (IC50) is less than 1000 nM.

Regarding `Cc1cc(Cl)cc(-c2ncnc3cc(CN4C(=O)C5C(C4=O)C5(C)C)sc23)c1O[C@@H]1CCNC[C@@H]1C` (stereo partly drawn) [Example 365, 3-[[4-[5-chloro-3-methyl-2-[[(3S,4R)-3-methyl-4-piperidyl]oxy]phenyl]thieno[3,2-d]pyrimidin-6-yl]methyl]-6,6-dimethyl-3-azabicyclo[3.1.0]hexane-2,4-dione dihydrochloride], the IC50 is less than 1000 nM.

Take `Cc1cc(Cl)cc(-c2ccnc3cc(CN4C(=O)C5C(C4=O)C5(C)C)sc23)c1O[C@@H]1CCNC[C@@H]1C` (stereo partly drawn) [Example 366, 3-[[7-[5-chloro-3-methyl-2-[[(3S,4R)-3-methyl-4-piperidyl]oxy]phenyl]thieno[3,2-b]pyridin-2-yl]methyl]-6,6-dimethyl-3-azabicyclo[3.1.0]hexane-2,4-dione dihydrochloride]: the concentration for half-maximal inhibition (IC50) was less than 1000 nM.

As to `Cc1cc(Cl)cc(-c2ccnc3cc(CN4C(=O)C5C(C4=O)C5(C)C)sc23)c1OC1CCNC1(C)C` (centres unmarked) [Example 368, 3-[[7-[5-chloro-2-(2,2-dimethylpyrrolidin-3-yl)oxy-3-methyl-phenyl]thieno[3,2-b]pyridin-2-yl]methyl]-6,6-dimethyl-3-azabicyclo[3.1.0]hexane-2,4-dione], the IC50 was less than 1000 nM.

As to `Cc1cc(Cl)cc(-c2ccnc3cc(CN4C(=O)C5C(C4=O)C5(C)C)sc23)c1OC1CNCC1(C)C` (centres unmarked) [Example 369, 3-[[7-[5-chloro-2-(4,4-dimethylpyrrolidin-3-yl)oxy-3-methyl-phenyl]thieno[3.2-b]pyridin-2-yl]methyl]-6,6-dimethyl-3-azabicyclo[3.1.0]hexane-2,4-dione], the concentration for half-maximal inhibition (IC50) is less than 1000 nM.

Turning to `Cc1cc(Cl)cc(-c2ncnc3cc(CN4C(=O)C5C(C4=O)C5(C)C)sc23)c1OC1CCNC1(C)C` (centres unmarked) [Example 370, 3-[[4-[5-chloro-2-(2,2-dimethylpyrrolidin-3-yl)oxy-3-methyl-phenyl]thieno[3,2-d]pyrimidin-6-yl]methyl]-6,6-dimethyl-3-azabicyclo[3.1.0]hexane-2,4-dione], the 50% inhibitory concentration (IC50) is less than 1000 nM.

`Cc1cc(Cl)cc(-c2ncnc3cc(CN4C(=O)C5C(C4=O)C5(C)C)sc23)c1OC1CNCC1(C)C` (centres unmarked) [Example 371, 3-[[4-[5-chloro-2-(4,4-dimethylpyrrolidin-3-yl)oxy-3-methyl-phenyl]thieno[3,2-d]pyrimidin-6-yl]methyl]-6,6-dimethyl-3-azabicyclo[3.1.0]hexane-2,4-dione]: the IC50 was less than 1000 nM.

Turning to `Cc1cc(Cl)cc(-c2ccnc3cc(CN4C(=O)C5C(C4=O)C5(C)C)sc23)c1OC1CNCC1(C)F` (centres unmarked) [Example 372, 3-[[7-[5-chloro-2-(4-fluoro-4-methyl-pyrrolidin-3-yl)oxy-3-methyl-phenyl]thieno[3,2-b]pyridin-2-yl]methyl]-6,6-dimethyl-3-azabicyclo[3.1.0]hexane-2,4-dione dihydrochloride], the IC50 is less than 1000 nM.

For `Cc1cc(Cl)cc(-c2ncnc3cc(CN4C(=O)C5C(C4=O)C5(C)C)sc23)c1O[C@@H]1CCN(C)C[C@@H]1C` (stereo partly drawn) [Example 373, 3-[[4-[5-chloro-2-[[(3S,4R)-1,3-dimethyl-4-piperidyl]oxy]-3-methyl-phenyl]thieno[3,2-d]pyrimidin-6-yl]methyl]-6,6-dimethyl-3-azabicyclo[3.1.0]hexane-2,4-dione dihydrochloride], the IC50 was less than 1000 nM.

Consider `CCN1CC(Oc2c(C)cc(Cl)cc2-c2ccnc3cc(CN4C(=O)C5C(C4=O)C5(C)C)sc23)C(C)(F)C1` (centres unmarked) [Example 374, 3-[[7-[5-chloro-2-(1-ethyl-4-fluoro-4-methyl-pyrrolidin-3-yl)oxy-3-methyl-phenyl]thieno[3,2-b]pyridin-2-yl]methyl]-6,6-dimethyl-3-azabicyclo[3.1.0]hexane-2,4-dione dihydrochloride], for which the IC50 is less than 1000 nM.

As to `Cc1cc(Cl)cc(-c2ccnc3cc(CN4C(=O)C5C(C4=O)C5(C)C)sc23)c1OC1CN(C)CC1(C)F` (centres unmarked) [Example 375, 3-[[7-[5-chloro-2-(4-fluoro-1,4-dimethyl-pyrrolidin-3-yl)oxy-3-methyl-phenyl]thieno[3,2-b]pyridin-2-yl]methyl]-6,6-dimethyl-3-azabicyclo[3.1.0]hexane-2,4-dione dihydrochloride], the IC50 was less than 1000 nM.

With `Cc1cc(Cl)cc(-c2ccnc3cc(CN4C(=O)C5C(C4=O)C5(C)C)sc23)c1O[C@@H]1CCNC[C@@H]1F` (stereo partly drawn) [Example 376, 3-[[7-[5-chloro-2-[[(3S,4R)-3-fluoro-4-piperidyl]oxy]-3-methyl-phenyl]thieno[3,2-b]pyridin-2-yl]methyl]-6,6-dimethyl-3-azabicyclo[3.1.0]hexane-2,4-dione; 2,2,2-trifluoroacetic acid], the 50% inhibitory concentration (IC50) was less than 1000 nM.

With `Cc1cc(Cl)cc(-c2ncnc3cc(CN4C(=O)C5C(C4=O)C5(C)C)sc23)c1O[C@@H]1CCNC[C@@H]1F` (stereo partly drawn) [Example 377, 3-[[4-[5-chloro-2-[[(3S,4R)-3-fluoro-4-piperidyl]oxy]-3-methyl-phenyl]thieno[3,2-d]pyrimidin-6-yl]methyl]-6,6-dimethyl-3-azabicyclo[3.1.0]hexane-2,4-dione; 2,2,2-trifluoroacetic acid], the half-maximal inhibitory concentration (IC50) is less than 1000 nM.

On to `Cc1cc(Cl)cc(-c2ncnc3cc(CN4C(=O)CC(C)C4=O)sc23)c1O[C@@H]1CNC[C@@H]1F` (stereo partly drawn) [Example 378, 1-[[4-[5-chloro-2-[(3R,4S)-4-fluoropyrrolidin-3-yl]oxy-3-methyl-phenyl]thieno[3,2-d]pyrimidin-6-yl]methyl]-3-methyl-pyrrolidine-2,5-dione; 2,2,2-trifluoroacetic acid], for which the concentration for half-maximal inhibition (IC50) is less than 1000 nM.

As for `Cc1cc(Cl)cc(-c2ncnc3cc(CN4C(=O)C(C)C(C)C4=O)sc23)c1O[C@@H]1CNC[C@@H]1F` (stereo partly drawn) [Example 379, 1-[[4-[5-chloro-2-[(3R,4S)-4-fluoropyrrolidin-3-yl]oxy-3-methyl-phenyl]thieno[3,2-d]pyrimidin-6-yl]methyl]-3,4-dimethyl-pyrrolidine-2,5-dione; 2,2,2-trifluoroacetic acid], the half-inhibitory concentration (IC50) is less than 1000 nM.

With `Cc1cc(Cl)cc(-c2ncnc3cc(CN4C(=O)CC(C)(C)C4=O)sc23)c1O[C@@H]1CNC[C@@H]1F` [Example 380, 1-[[4-[5-chloro-2-[(3R,4S)-4-fluoropyrrolidin-3-yl]oxy-3-methyl-phenyl]thieno[3,2-d]pyrimidin-6-yl]methyl]-3,3-dimethyl-pyrrolidine-2,5-dione; 2,2,2-trifluoroacetic acid], the IC50 was less than 1000 nM.

Regarding `CCC1(C)CC(=O)N(Cc2cc3ncnc(-c4cc(Cl)cc(C)c4O[C@@H]4CNC[C@@H]4F)c3s2)C1=O` (stereo partly drawn) [Example 381, 1-[[4-[5-chloro-2-[(3R,4S)-4-fluoropyrrolidin-3-yl]oxy-3-methyl-phenyl]thieno[3,2-d]pyrimidin-6-yl]methyl]-3-ethyl-3-methyl-pyrrolidine-2,5-dione; 2,2,2-trifluoroacetic acid], the IC50 was less than 1000 nM.
